{
  "source": "patent EP4623928A1",
  "about": "“GLP-1R ANTAGONISTS FOR THE TREATMENT OF CANCER” (Fiorina, Paolo, priority 2024, dated 2025)",
  "key": {"[1]": {"system": "Cardiac allografts", "assay": "Murine cardiac allotransplantation (BALB/c hearts into C57BL/6 mice)", "assay_type": "in vivo", "experimental": "Cardiac allografts from BALB/c mice were transplanted intra-abdominally in C57BL/6 mice using microsurgical techniques as described (31). Rejection was determined as complete cessation of cardiac contractility and was confirmed by direct visualization. Transplanted mice were intraperitoneally injected according to the following protocols: 1) Exendin-4 (Exe-4) (Amylin Pharmaceuticals, San Diego, CA - USA) 0.2pg twice/day for two weeks after transplant; 2) Exe-4 0.2pg twice/day from the day before until two weeks after transplant; 3) Exe-4 2µg twice/day from the day before until two weeks after transplant; 4) Exe-4 2µg twice/day + Exendin-9-39 (Exe-9) (Sigma-Aldrich) 2µg twice/day from the day before until two weeks after transplant; 5) Exe-4 2µg twice/day from the day before until two weeks after transplant + Rapamycin 0.1mg/die for two weeks; 6) saline 0.5ml twice/day for two weeks."}, "[2]": {"system": "GLP-1R^pos and GLP-1R^neg CD3^+ T cells", "assay": "Proliferation, apoptosis and IFN-γ expression of GLP-1Rpos and GLP-1Rneg CD3+ T cells stimulated with anti-CD3/anti-CD28", "assay_type": "cell-based, C57BL/6 mice", "settings": "for proliferation rate: anti-CD3/anti-CD28", "experimental": "FACS analysis was performed with a FACSCelesta (BD Bioscience) on murine splenocytes or on single cells suspension prepared upon collagenase-digestion of grafted organs. We used the following antibodies: APC conjugated Rat anti-mouse CD62L, PE conjugated Rat anti-mouse CD44, PerCp conjugated Rat anti-mouse CD4 or PerCp conjugated Rat anti-mouse CD8, (Biolegend, San Diego, CA, USA), and APC conjugated anti-mouse/human insulin (R&D, Minneapolis, MN - USA). GLP-1R was detected by indirect staining; the primary antibody was purchased from Alomone Lab (Jerusalem, Israel) and variably associated with FITC or APC-conjugated anti-isotype Ab (BD and Biolegend respectively). For intracellular staining, splenocytes were isolated from BL6 mice were incubated with and w/o anti CD3/CD28 used both at 0.5 µg/ml, Exe-4 (0.1nM, 1nM and 10nM) or with Exe-4+Exe-9-39 (0.1nM, 1nM and 10nM). After 24hours incubation, cells were collected, washed and plated in RPMI 10% FBS, then stimulated with 50 ng/ml PMA (Sigma Aldrich), 500 ng/ml ionomycin (Sigma Aldrich) and Golgi Stop as recommended by the manufacturer (BD Biosciences, San Diego, CA, USA) for 4h in a humidified incubator 37°C, 5% CO2. After incubation, cells were collected, washed and stained for surface markers, i.e CD4 BUV737, CD8 BUV395, (BD Biosciences, San Diego, CA, USA) and GLP-1R FITC (Alomone Lab, Jerusalem, Israel). They were further fixed, permeabilized using the BD Cytofix/Cytoperm Kit (BD Biosciences, San Diego, CA, USA), and stained with a mAb against IFN-γ (eBioscience). Finally, CD4^+ GLP-1R^+ IFN-γ^+ and CD8^+ GLP-1R^+ IFN-γ ^+ T cells were assessed by flow cytometry analysis. For the expression of GLP-1R on innate immune cells, the following antibodies were used: CD4 BB700, NK1.1 BV421, CD127 BV605, CD44 PE, GLP-1R FITC/PD1 FITC, Viability Dye BV510 (NKT subset); CD45 BV786, CD3 BB700, NK1.1 BV421, GLP-1R FITC/PD1 FITC, Viability Dye BV510 (NK subset); CD45 BB700, CD11c BV786, CD11b BV421, GLP-1R FITC/PD1 FITC, Viability Dye BV510; CD45 PE-CF594, CD127 BV605, NK1.1 BV421, CD335 BV786, CD49a BV650, CD117 BB700, IL33R PE, IL23R BV711, GLP-1R FITC/PD1 FITC, Viability Dye BV510 (LCs subset). For the determination of the chemokine receptors profile of GLP-1R^+ CD3^+ T cells, the following antibodies were used: GLP-1R FITC, CXCR4 PE, CX3CR1 BV605, CCR2 BV421, CCR5 BV650, CCR7 BV786, CXCR3 BB700, CXCR6 BV711, Viability Dye BV510."}},
  "data": [
    {"substance": "Exendin-4 [Exe-4]", "values": [
      {"measurement": "graft infiltration (Hematoxylin and eosin staining)", "setting": "[1]; day-7 heart allograft, Exe-4-treated mice", "value": "decrease of graft infiltration"},
      {"measurement": "[MST] (cardiac allograft survival)", "setting": "[1]; first of three Exe-4 regimens listed 'respectively' (low or high dose, preceded or not with pre-treatment), untreated [MST]=7 days, p<0.01", "value": 9, "unit": "days"},
      {"measurement": "[MST] (cardiac allograft survival)", "setting": "[1]; second of three Exe-4 regimens listed 'respectively', p<0.01 vs untreated", "value": 10, "unit": "days"},
      {"measurement": "CD4^+ and CD8^+ effector T cells", "setting": "[1]; splenic, Exe-4-treated mice", "value": "significant decrease"},
      {"measurement": "Tregs", "setting": "[1]; splenic, Exe-4-treated mice", "value": "no effect"},
      {"measurement": "[MST] (cardiac allograft survival)", "setting": "[1]; third of three Exe-4 regimens listed 'respectively', p<0.01 vs untreated", "value": 10, "unit": "days"},
      {"measurement": "proliferation rate", "setting": "[2]; GLP-1R^neg CD3^+ T cells, Exe-4 (1 nM)", "value": "but not of GLP-1R^neg CD3^+ T cells"},
      {"measurement": "proliferation rate", "setting": "[2]; GLP-1R^pos CD3^+ T cells, Exe-4 (1 nM)", "value": "slightly modulated"},
      {"measurement": "IFN-y expression", "setting": "[2]; GLP-1R^pos and GLP-1R^neg CD3^+ T cells, Exe-4 (1 nM)", "value": "no evident effect"},
      {"measurement": "apoptosis (GLP-1R^pos more apoptotic than GLP-1R^neg)", "setting": "[2]; GLP-1R^pos vs GLP-1R^neg CD3^+ T cells, with or without Exe-4", "value": "independently of Exe-4 treatment"}
    ]}
  ]
}
